According to patent US11603355B2, “Charged ion channel blockers and methods for use” (Nocion Therapeutics, Inc., priority 2019, dated 2023):

Legend:
NaV1.7 [1] = biological target: T1, NaV1.7 (Homo sapiens, UniProt Q15858); assay: Automated patch clamp (Qube 384), internal block of NaV1.7; assay type: cell-based; details: IC50, compound in internal solution, HEK293 cells, read-out: Nav1.7 Intracellular Inhibition
T1 construct: expressed in transfected cells; host or cells: HEK293 (tetracycline-inducible)
T1 sequence (Q15858 whole entry): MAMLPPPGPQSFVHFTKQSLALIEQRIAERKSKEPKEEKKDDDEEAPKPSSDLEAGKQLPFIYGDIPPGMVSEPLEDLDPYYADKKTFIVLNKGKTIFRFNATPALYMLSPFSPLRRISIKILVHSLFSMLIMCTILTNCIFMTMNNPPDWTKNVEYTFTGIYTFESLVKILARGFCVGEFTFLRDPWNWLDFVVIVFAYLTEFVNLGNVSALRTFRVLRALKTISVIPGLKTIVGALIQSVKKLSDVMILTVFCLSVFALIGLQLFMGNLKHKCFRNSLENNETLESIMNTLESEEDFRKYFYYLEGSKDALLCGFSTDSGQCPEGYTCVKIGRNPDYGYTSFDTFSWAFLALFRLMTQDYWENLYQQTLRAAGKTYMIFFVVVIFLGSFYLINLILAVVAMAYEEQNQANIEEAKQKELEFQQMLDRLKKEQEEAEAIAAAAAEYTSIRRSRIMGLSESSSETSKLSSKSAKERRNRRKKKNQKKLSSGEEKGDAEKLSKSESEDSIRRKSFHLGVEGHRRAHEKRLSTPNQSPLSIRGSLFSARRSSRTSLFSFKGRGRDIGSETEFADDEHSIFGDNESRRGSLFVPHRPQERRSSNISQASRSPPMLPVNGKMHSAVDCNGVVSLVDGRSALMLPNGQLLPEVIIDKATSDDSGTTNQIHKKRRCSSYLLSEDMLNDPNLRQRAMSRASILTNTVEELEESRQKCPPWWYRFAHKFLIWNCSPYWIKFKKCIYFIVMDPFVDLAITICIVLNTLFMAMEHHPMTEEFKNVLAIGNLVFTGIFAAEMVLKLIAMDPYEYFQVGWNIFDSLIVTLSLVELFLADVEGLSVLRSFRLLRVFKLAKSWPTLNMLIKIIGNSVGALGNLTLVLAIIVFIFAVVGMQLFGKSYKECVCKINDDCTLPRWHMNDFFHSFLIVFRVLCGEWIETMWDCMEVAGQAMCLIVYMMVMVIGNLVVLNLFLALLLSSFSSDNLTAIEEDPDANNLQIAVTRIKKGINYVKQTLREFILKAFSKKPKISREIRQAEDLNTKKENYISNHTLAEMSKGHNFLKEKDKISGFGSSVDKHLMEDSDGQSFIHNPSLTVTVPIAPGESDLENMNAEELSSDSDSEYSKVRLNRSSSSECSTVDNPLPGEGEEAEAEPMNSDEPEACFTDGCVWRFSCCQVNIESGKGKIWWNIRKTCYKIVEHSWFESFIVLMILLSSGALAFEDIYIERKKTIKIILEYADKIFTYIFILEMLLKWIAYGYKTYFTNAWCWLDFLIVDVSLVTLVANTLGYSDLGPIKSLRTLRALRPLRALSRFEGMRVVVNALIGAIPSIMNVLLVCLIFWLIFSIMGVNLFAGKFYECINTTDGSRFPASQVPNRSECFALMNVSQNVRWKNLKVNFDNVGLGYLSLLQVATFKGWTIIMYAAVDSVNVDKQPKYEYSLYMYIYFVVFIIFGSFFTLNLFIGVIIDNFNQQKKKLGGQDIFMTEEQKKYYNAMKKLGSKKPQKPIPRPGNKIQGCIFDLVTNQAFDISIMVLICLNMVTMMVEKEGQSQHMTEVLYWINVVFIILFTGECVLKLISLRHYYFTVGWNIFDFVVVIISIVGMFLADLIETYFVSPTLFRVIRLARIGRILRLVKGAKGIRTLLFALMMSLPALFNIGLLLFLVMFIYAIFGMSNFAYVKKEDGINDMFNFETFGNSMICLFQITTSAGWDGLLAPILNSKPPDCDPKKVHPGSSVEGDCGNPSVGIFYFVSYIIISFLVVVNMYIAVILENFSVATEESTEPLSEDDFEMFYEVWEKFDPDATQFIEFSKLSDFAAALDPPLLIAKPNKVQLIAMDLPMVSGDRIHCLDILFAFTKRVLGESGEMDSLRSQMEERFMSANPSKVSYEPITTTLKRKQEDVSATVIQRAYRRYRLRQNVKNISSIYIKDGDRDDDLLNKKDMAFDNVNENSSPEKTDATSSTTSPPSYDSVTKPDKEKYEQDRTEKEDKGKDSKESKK
In short: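 Tetracycline-induced HEK293 cells, whole-cell Qube recording at 22 degrees; compounds dissolved in internal solution (CsF-based, pH 7.3), exchanged after baseline. Held at −100 mV, 10 ms pulses to −20 mV at 5 Hz for 10 min; remaining current (last 3 points) vs baseline, rundown-corrected with no-drug cells; Hill-fit IC50.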

[2] = PAMPA membrane permeability assay; assay type: in vitro ADME; details: permeability coefficient, pH 7.4 buffer, GIT lipid, 4 hours incubation
In short: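 Passive diffusion across a GIT-lipid-painted artificial membrane at pH 7.4, with a 50 uM donor stock diluted from DMSO and a 4 h incubation. UV spectra of the donor, acceptor and reference plates were read, and the permeability coefficient was calculated from the AUCs, in 10^−6 cm/s.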

NaV1.7 [3] = biological target: T1, NaV1.7; assay: Automated patch clamp (Qube 384), external block of NaV1.7; assay type: cell-based; details: IC50, compound in external solution, HEK293 cells, read-out: Nav1.7 Extracellular Inhibition
Experimental: NaV1.7 was expressed in HEK293 cells upon induction with tetracycline. Cells were cultured in DMEM containing 10% dialyzed Fetal Bovine Serum (VWR, Radnor, Pa.), 1% Glutamax (VWR, Radnor, Pa.), 1% Penicillin-Streptomycin (VWR, Radnor, Pa.), 100 mg/L Hygromycin (Thermo Fisher Scientific, Waltham, Mass. and 5 mg/L Blasticidin (Alfa Aesar, Haverhill, Mass.). Cells were grown and maintained at 37° C. in a humidified environment containing 10% CO2 in air. Cells were detached from the culture flask for passage and harvested using 0.05% Trypsin-EDTA (Thermo Fisher Scientific, Waltham, Mass.). To induce NaV1.7, cells were induced with tetracycline (0.1-1 μg/mL, IBI Scientific, Peosta, Iowa) the day before recording.
Before experiments, cells were washed with DPBS (VWR, Radnor, Pa.), digested with Detachin (VWR Radnor, Pa.) and then triturated 10 times in CHO Serum-Free Media (VWR Radnor, Pa.) to resuspend the cells and to break apart cell aggregates. Cells were counted and the final concentration was set at 2-5 million cells per mL.
The intracellular solution contained the following: 140 mM CsF, 1 mM/5 mM EGTA/CsOH, 10 mM HEPES, 10 mM NaCl, adjusted to pH 7.3 with CsOH, and osmolality to 320 with OSM solution. The external solution contained the following: 145 mM NaCl, 4 mM KCl, 1 mM MgCl2, 2 mM CaCl2), 10 mM HEPES, 10 mM Glucose, adjusted to pH 7.4 with CsOH and osmolality to 305 with OSM solution. The OSM solution was a normal Ringer solution containing (in mM) NaCl 155, HEPES 10, sucrose, KCl 3.5, CaCl2) 1.5, MgCl2 1 adjusted to pH 7.4 with NaOH. All chemicals are from Sigma-Aldrich, St. Louis, Mo. In order to test the degree of internal block by test compounds, the compounds were dissolved in internal solution at the indicated test concentration. […] In order to test the degree of external block by test compounds the compounds were dissolved in external solution at the indicated test concentration.
Automated Patch Clamps were performed on Qube 384 (Sophion Bioscience, Woburn Mass.) with multihole Qchips at a temperature setting of 22 degrees. The whole cells configuration was formed with default Qube seal and break-in parameter. The membrane potential was held at −100 mV before the voltage protocol began. Two voltage protocols were followed.
Step 1: Cells were held at −100 mV with a depolarized pulse to −20 mV for 10 ms, the interval was set at 5 s. Currents were corrected by default leak subtraction from every pulse. The duration was set at 5 mins.
Step 2: Cells were held at −100 mV with a depolarized pulse to −20 mV for 10 ms. The frequency was 5 Hz. Currents were corrected by leak subtraction calculated before step 2. The duration was set at 4 mins.
After Step 2, the external solution was changed with solutions containing test compounds. Qchips were held at −100 mV without pulsing. The total solution switching time was 8 minutes. After the external solution exchange, cells were recorded using the same procedure as step 2 for 10 minutes.
Data analysis was performed by Sophion Analyzer. Data were corrected with control cells (Non-Drug). The IC50 data were plotted with DR-plots/Hill function (a dose-response plot with a Hill fit). Representative examples of the invention were tested for extracellular inhibition of NaV 1.7 in the automated patch clamp assay. Activity Range is reported as IC50: “++++” ([…], “+++” (1-3 μM), “++” ([…]) or “+” (>10 μM). The results are presented below.

| IC50 (NaV1.7 [1]) [µM] | PAMPA (10^−6 cm/s) [2] | IC50 (NaV1.7 [3]) [µM] | SMILES |
| --- | --- | --- | --- |
| 1 to 3 | + (“+” (<0.1 10^−6 cm/s)) | > 10 | CCN(CC)C(=O)C1CCC[N+](CC(=O)Nc2c(C)cccc2C)(Cc2ccccc2)C1 (stereo not drawn) [Compound 66A] |
| 0.3 to 1 | + (“+” (<0.1 10^−6 cm/s)) | > 10 | CCCOC(=O)N1CCC[N+](CC(=O)Nc2c(C)cccc2C)(Cc2ccccc2)CC1.[Br-] (stereo not drawn) [Compound 68A, 1-benzyl-1-(2-((2,6-dimethylphenyl)amino)-2-oxoethyl)-4-(propoxycarbonyl)-1,4-diazepan-1-ium bromide] |
| 0.3 to 1 | ++ (“++” (0.1-2.0 10^−6 cm/s)) | 3 to 10 | Cc1cccc(F)c1NC(=O)C[N+]1(Cc2ccccc2)CCCCCC1.[Br-] [Compound 69A, 1-benzyl-1-(2-((2-fluoro-6-methylphenyl)amino)-2-oxoethyl)azepan-1-ium bromide] |
| 1 to 3 | + (“+” (<0.1 10^−6 cm/s)) | 3 to 10 | CCCc1cccc(C)c1NC(=O)C[N+]1(Cc2ccccc2)CCCCCC1.[Br-] [Compound 75A] |
| 0.3 to 1 | + (“+” (<0.1 10^−6 cm/s)) | 1 to 3 | CCOc1cccc(C)c1NC(=O)C[N+]1(Cc2ccccc2)CCCCCC1.[Br-] [Compound 77A] |
| 0.3 to 1 | + (“+” (<0.1 10^−6 cm/s)) | > 10 | CCC(=O)Oc1cccc(C)c1NC(=O)C[N+]1(Cc2ccccc2)CCCCCC1.[Br-] [Compound 80A, 1-benzyl-1-(2-((2-methyl-6-(propionyloxy)phenyl)amino)-2-oxoethyl) azepan-1-ium bromide] |
| 0.3 to 1 | + (“+” (<0.1 10^−6 cm/s)) | 3 to 10 | Cc1cccc(C)c1C(=O)OCC[N+]1(Cc2ccccc2)CCCCCC1.[Br-] [Compound 82A, 1-benzyl-1-(2-((2,6-dimethylbenzoyl)oxy)ethyl) azepan-1-ium bromide] |
| 1 to 3 | + (“+” (<0.1 10^−6 cm/s)) | > 10 | CC[N+](CC)(CCCc1ccccc1)CC(=O)Nc1c(C)cccc1C.[Br-] [Compound 86A, N-(2-((2,6-dimethylphenyl)amino)-2-oxoethyl)-N, N-diethyl-3-phenylpropan-1-aminium bromide] |
| 1 to 3 | ++ (“++” (0.1-2.0 10^−6 cm/s)) | > 10 | Cc1cccc(C)c1N1CCC([N+]2(Cc3ccccc3)CCCCC2)C1=O.[Br-] (stereo not drawn) [Compound 89A, 1-benzyl-1-(1-(2,6-dimethylphenyl)-2-oxopyrrolidin-3-yl)piperidin-1-ium bromide] |
| 0.3 to 1 | + (“+” (<0.1 10^−6 cm/s)) | 3 to 10 | Cc1cccc(C)c1N1CCC([N+]2(Cc3ccccc3)CCCCCCC2)C1=O.[Br-] (stereo not drawn) [Compound 90A] |
| 1 to 3 | + (“+” (<0.1 10^−6 cm/s)) | > 10 | Cc1cccc(C)c1N1CCCC([N+]2(Cc3ccccc3)CCCC2)C1=O.[Br-] (stereo not drawn) [Compound 91A, 1-benzyl-1-(1-(2,6-dimethylphenyl)-2-oxopiperidin-3-yl) pyrrolidin-1-ium bromide] |
